# Test results published in ChEMBL document CHEMBL5257025, “Artemisinin-Derived Dimers: Potent Antimalarial and Anticancer Agents” (J Med Chem, 2016).
# Key:
# Plasmodium falciparum [1] = assay: Antimalarial activity against Plasmodium falciparum NF54 assessed as reduction in cell growth; type: functional, organism-based
# KB = assay: Antiproliferative activity against human KB cells assessed as reduction in cell viability incubated for 48 hrs by MTT assay; type: functional, cell-based
# Plasmodium falciparum [2] = assay: Antiplasmodial activity against Plasmodium falciparum NF54 assessed as reduction in malarial growth; type: functional, organism-based
# A549 = assay: cells; conditions: Homo sapiens, A549, 48 h
# MDA-MB-231 = assay: Antiproliferative activity against human MDA-MB-231 cells assessed as reduction in cell viability measured after 48 hrs by MTT assay; type: functional, cell-based; conditions: MDA-MB-231, 48 h
# HT-29 = assay: cells; conditions: Homo sapiens, HT-29, 72 h
# [3] = Cytotoxicity against African green monkey Vero cells; type: toxicity, cell-based; conditions: chlorocebus sabaeus, read-out: TC50 (the source's name)
# Plasmodium falciparum [4] = assay: Antimalarial activity against Plasmodium falciparum K1 assessed as inhibition of malarial growth; type: functional, organism-based
structure (smiles),measurement,setting,value
C[C@@H]1CC[C@H]2[C@@H](C)C(CC3(CC4O[C@H]5O[C@@]6(C)CC[C@H]7[C@H](C)CC[C@@H]([C@H]4C)[C@@]57OO6)CO3)O[C@H]3O[C@@]4(C)CC[C@@H]1[C@]32OO4 (stereo not given in full),IC50,Plasmodium falciparum [1],0.0028 µM
C[C@@H]1CC[C@H]2[C@@H](C)C(OC/C=C\COC3O[C@H]4O[C@@]5(C)CC[C@H]6[C@H](C)CC[C@@H]([C@H]3C)[C@@]46OO5)O[C@H]3O[C@@]4(C)CC[C@@H]1[C@]32OO4 (stereo not given in full),IC50,KB,0.32 µM
C[C@@H]1CC[C@H]2[C@@H](C)C(CC(COC(=O)c3ccncc3)CC3O[C@H]4O[C@@]5(C)CC[C@H]6[C@H](C)CC[C@@H]([C@H]3C)[C@@]46OO5)O[C@H]3O[C@@]4(C)CC[C@@H]1[C@]32OO4 (stereo not given in full),IC50,Plasmodium falciparum [1],0.0017 µM
C[C@@H]1CC[C@H]2[C@@H](C)C(/C=C\c3ccc(/C=C\C4O[C@H]5O[C@@]6(C)CC[C@H]7[C@H](C)CC[C@@H]([C@H]4C)[C@@]57OO6)cc3)O[C@H]3O[C@@]4(C)CC[C@@H]1[C@]32OO4 (stereo not given in full),IC50,Plasmodium falciparum [2],0.018 µM
C[C@@H]1CC[C@H]2[C@@H](C)C(OCCN/C(=N/c3cccc(Br)c3)NCCOC3O[C@@H]4O[C@]5(C)CC[C@@H]6[C@@H](C)CC[C@H]([C@@H]3C)[C@]46OO5)O[C@H]3O[C@@]4(C)CC[C@@H]1[C@]32OO4 (stereo not given in full),IC50,A549,0.36 µM
same,IC50,MDA-MB-231,1.57 µM
same,IC50,HT-29,0.4 µM
C=C(CC1O[C@H]2O[C@@]3(C)CC[C@H]4[C@H](C)CC[C@@H]([C@H]1C)[C@@]24OO3)CC1O[C@H]2O[C@@]3(C)CC[C@H]4[C@H](C)CC[C@@H]([C@H]1C)[C@@]24OO3 (stereo not given in full),IC50,Plasmodium falciparum [1],0.024 µM
same,IC50,Plasmodium falciparum [2],0.024 µM
CCCC[C@@]1(C[C@@H]2C(=O)O[C@H]3O[C@@]4(C)CC[C@H]5[C@H](C)CC[C@@H]2[C@@]35OO4)O[C@H]2O[C@@]3(C)CC[C@H]4[C@H](C)CC[C@@H]([C@H]1C)[C@@]24OO3,CC50,[3],> 130 µM
C[C@H]1[C@H](CC(=O)c2ccc(C(=O)CC[C@H]3O[C@H]4O[C@@]5(C)CC[C@H]6[C@H](C)CC[C@@H]([C@H]3C)[C@@]46OO5)cc2)O[C@H]2O[C@@]3(C)CC[C@H]4[C@H](C)CC[C@@H]1[C@@]24OO3,IC50,Plasmodium falciparum [1],0.0039 µM
same,IC50,Plasmodium falciparum [2],0.0017 µM
C[C@@H]1CC[C@H]2[C@@H](C)C(OCCN/C(=N/c3ccc(OC(F)(F)F)cc3)NCCOC3O[C@@H]4O[C@]5(C)CC[C@@H]6[C@@H](C)CC[C@H]([C@@H]3C)[C@]46OO5)O[C@H]3O[C@@]4(C)CC[C@@H]1[C@]32OO4 (stereo not given in full),IC50,A549,0.17 µM
same,IC50,HT-29,0.24 µM
C[C@@H]1CC[C@H]2[C@@H](C)C(OCCN/C(=N/c3ccc(Cl)cc3)NCCOC3O[C@@H]4O[C@]5(C)CC[C@@H]6[C@@H](C)CC[C@H]([C@@H]3C)[C@]46OO5)O[C@H]3O[C@@]4(C)CC[C@@H]1[C@]32OO4 (stereo not given in full),IC50,A549,0.98 µM
same,IC50,MDA-MB-231,1.26 µM
same,IC50,HT-29,0.1 µM
C[C@@H]1CC[C@H]2[C@@H](C)C(/C=C\c3cccc(/C=C/C4O[C@H]5O[C@@]6(C)CC[C@H]7[C@H](C)CC[C@@H]([C@H]4C)[C@@]57OO6)c3)O[C@H]3O[C@@]4(C)CC[C@@H]1[C@]32OO4 (stereo not given in full),IC50,Plasmodium falciparum [2],0.035 µM
C[C@@H]1CC[C@H]2[C@@H](C)C(CCOCc3ccc(COCCC4O[C@H]5O[C@@]6(C)CC[C@H]7[C@H](C)CC[C@@H]([C@H]4C)[C@@]57OO6)cc3)O[C@H]3O[C@@]4(C)CC[C@@H]1[C@]32OO4 (stereo not given in full),IC50,Plasmodium falciparum [4],0.0024 µM
C[C@@H]1CC[C@H]2[C@@H](C)C(CC(COS(=O)(=O)c3cccc4c(N(C)C)cccc34)CC3O[C@H]4O[C@@]5(C)CC[C@H]6[C@H](C)CC[C@@H]([C@H]3C)[C@@]46OO5)O[C@H]3O[C@@]4(C)CC[C@@H]1[C@]32OO4 (stereo not given in full),IC50,Plasmodium falciparum [1],0.0039 µM
CCC[C@@]1(C[C@@H]2C(=O)O[C@H]3O[C@@]4(C)CC[C@H]5[C@H](C)CC[C@@H]2[C@@]35OO4)O[C@H]2O[C@@]3(C)CC[C@H]4[C@H](C)CC[C@@H]([C@H]1C)[C@@]24OO3,CC50,[3],> 130 µM
C[C@@H]1CC[C@H]2[C@@H](C)C(OCCN/C(=N/c3ccc(C(F)(F)F)cc3)NCCOC3O[C@@H]4O[C@]5(C)CC[C@@H]6[C@@H](C)CC[C@H]([C@@H]3C)[C@]46OO5)O[C@H]3O[C@@]4(C)CC[C@@H]1[C@]32OO4 (stereo not given in full),IC50,A549,0.68 µM
same,IC50,MDA-MB-231,1.18 µM
same,IC50,HT-29,0.06 µM
C[C@@H]1CC[C@H]2[C@@H](C)C(OCCN/C(=N/c3ccc(Cl)cc3Cl)NCCOC3O[C@@H]4O[C@]5(C)CC[C@@H]6[C@@H](C)CC[C@H]([C@@H]3C)[C@]46OO5)O[C@H]3O[C@@]4(C)CC[C@@H]1[C@]32OO4 (stereo not given in full),IC50,A549,0.64 µM
same,IC50,MDA-MB-231,2.08 µM
same,IC50,HT-29,0.05 µM
C[C@@H]1CC[C@H]2[C@@H](C)C(CC(=O)CC3O[C@H]4O[C@@]5(C)CC[C@H]6[C@H](C)CC[C@@H]([C@H]3C)[C@@]46OO5)O[C@H]3O[C@@]4(C)CC[C@@H]1[C@]32OO4 (stereo not given in full),IC50,Plasmodium falciparum [1],0.00091 µM
C[C@@H]1CC[C@H]2[C@@H](C)C(OCCN/C(=N/c3cccc(Cl)c3)NCCOC3O[C@@H]4O[C@]5(C)CC[C@@H]6[C@@H](C)CC[C@H]([C@@H]3C)[C@]46OO5)O[C@H]3O[C@@]4(C)CC[C@@H]1[C@]32OO4 (stereo not given in full),IC50,A549,0.72 µM
same,IC50,MDA-MB-231,1.17 µM
same,IC50,HT-29,0.1 µM
C[C@@H]1CC[C@H]2[C@@H](C)C(CC(O)(CCS(=O)(=O)c3ccc(C(=O)O)cc3)CC3O[C@H]4O[C@@]5(C)CC[C@H]6[C@H](C)CC[C@@H]([C@H]3C)[C@@]46OO5)O[C@H]3O[C@@]4(C)CC[C@@H]1[C@]32OO4 (stereo not given in full),IC50,Plasmodium falciparum [1],0.0024 µM
C[C@@H]1CC[C@H]2[C@@H](C)C(CC#Cc3cccc(C#CCC4O[C@H]5O[C@@]6(C)CC[C@H]7[C@H](C)CC[C@@H]([C@H]4C)[C@@]57OO6)c3)O[C@H]3O[C@@]4(C)CC[C@@H]1[C@]32OO4 (stereo not given in full),IC50,Plasmodium falciparum [2],0.036 µM
C[C@H]1[C@H](CCC(=O)c2ccc(C(=O)C[C@@H]3O[C@H]4O[C@@]5(C)CC[C@H]6[C@H](C)CC[C@@H]([C@H]3C)[C@@]46OO5)cc2)O[C@H]2O[C@@]3(C)CC[C@H]4[C@H](C)CC[C@@H]1[C@@]24OO3,IC50,Plasmodium falciparum [2],0.0019 µM
C[C@@H]1CC[C@H]2[C@@H](C)C(OCCN/C(=N/c3cccc(F)c3)NCCOC3O[C@@H]4O[C@]5(C)CC[C@@H]6[C@@H](C)CC[C@H]([C@@H]3C)[C@]46OO5)O[C@H]3O[C@@]4(C)CC[C@@H]1[C@]32OO4 (stereo not given in full),IC50,MDA-MB-231,1.33 µM
same,IC50,HT-29,0.09 µM
C[C@@H]1CC[C@H]2[C@@H](C)C(CC(O)(COC(=O)CCC(=O)O)CC3O[C@H]4O[C@@]5(C)CC[C@H]6[C@H](C)CC[C@@H]([C@H]3C)[C@@]46OO5)O[C@H]3O[C@@]4(C)CC[C@@H]1[C@]32OO4 (stereo not given in full),IC50,Plasmodium falciparum [1],0.003 µM
C[C@@H]1CC[C@H]2[C@@H](C)C(CC(COC(=O)c3cc(=O)oc4cc(N(C)C)ccc34)CC3O[C@H]4O[C@@]5(C)CC[C@H]6[C@H](C)CC[C@@H]([C@H]3C)[C@@]46OO5)O[C@H]3O[C@@]4(C)CC[C@@H]1[C@]32OO4 (stereo not given in full),IC50,Plasmodium falciparum [1],0.0024 µM
C[C@@H]1CC[C@H]2[C@@H](C)C(OCCN/C(=N/c3cc(C(F)(F)F)ccc3F)NCCOC3O[C@@H]4O[C@]5(C)CC[C@@H]6[C@@H](C)CC[C@H]([C@@H]3C)[C@]46OO5)O[C@H]3O[C@@]4(C)CC[C@@H]1[C@]32OO4 (stereo not given in full),IC50,A549,0.24 µM
same,IC50,MDA-MB-231,1.42 µM
same,IC50,HT-29,0.02 µM
C[C@@H]1CC[C@H]2[C@@H](C)C(/C=C/c3cccc(/C=C/C4O[C@@H]5O[C@]6(C)CC[C@@H]7[C@@H](C)CC[C@H]([C@@H]4C)[C@]57OO6)c3)O[C@H]3O[C@@]4(C)CC[C@@H]1[C@]32OO4 (stereo not given in full),IC50,Plasmodium falciparum [2],0.077 µM
C[C@@H]1CC[C@H]2[C@@H](C)C(CC(O)(CC3O[C@@H]4O[C@]5(C)CC[C@@H]6[C@@H](C)CC[C@H]([C@@H]3C)[C@]46OO5)c3ccc(C(=O)O)cc3)O[C@H]3O[C@@]4(C)CC[C@@H]1[C@]32OO4 (stereo not given in full),IC50,Plasmodium falciparum [1],0.0021 µM
CCCCCC[C@@]1(C[C@@H]2C(=O)O[C@H]3O[C@@]4(C)CC[C@H]5[C@H](C)CC[C@@H]2[C@@]35OO4)O[C@H]2O[C@@]3(C)CC[C@H]4[C@H](C)CC[C@@H]([C@H]1C)[C@@]24OO3,CC50,[3],2.5 µM
same,IC50,KB,4 µM
C[C@@H]1CC[C@H]2[C@@H](C)C(CC(O)(CO)CC3O[C@H]4O[C@@]5(C)CC[C@H]6[C@H](C)CC[C@@H]([C@H]3C)[C@@]46OO5)O[C@H]3O[C@@]4(C)CC[C@@H]1[C@]32OO4 (stereo not given in full),IC50,Plasmodium falciparum [1],0.00059 µM
COc1cc(OC)c(C2O[C@H]3O[C@@]4(C)CC[C@H]5[C@H](C)CC[C@@H]([C@H]2C)[C@@]35OO4)cc1C1O[C@H]2O[C@@]3(C)CC[C@H]4[C@H](C)CC[C@@H]([C@H]1C)[C@@]24OO3 (stereo not given in full),IC50,Plasmodium falciparum [2],0.0013 µM
C[C@@H]1CC[C@H]2[C@@H](C)C(CC#Cc3ccc(C#CCC4O[C@H]5O[C@@]6(C)CC[C@H]7[C@H](C)CC[C@@H]([C@H]4C)[C@@]57OO6)cc3)O[C@H]3O[C@@]4(C)CC[C@@H]1[C@]32OO4 (stereo not given in full),IC50,Plasmodium falciparum [2],0.03 µM
C[C@@H]1CC[C@H]2[C@@H](C)C(CC(=O)c3cccc(C(=O)CC4O[C@H]5O[C@@]6(C)CC[C@H]7[C@H](C)CC[C@@H]([C@H]4C)[C@@]57OO6)c3)O[C@H]3O[C@@]4(C)CC[C@@H]1[C@]32OO4 (stereo in doubt),IC50,Plasmodium falciparum [2],0.0019 µM
CCN(CC)CCCC(C)Nc1ccnc2cc(Cl)ccc12 (stereo not given) [CHLOROQUINE],CC50,[3],> 14.9 µM
